Results reported in the CheMixHub viscosity set.
Where “and” joins values, the source holds several entries; their conditions need not be identical. Equal values may be shown once. ± gives the uncertainty stated by the source.

In the case of `CCC12CC3CC(CC(C3)C1)C2`, the viscosity (293.15 K, 100 kPa) is reported as 6.43 ± 0.26 mPa·s, the viscosity (298.15 K, 100 kPa) is reported as 5.606 ± 0.23 mPa·s and the viscosity (303.15 K, 100 kPa) is reported as 4.931 ± 0.2 mPa·s. It also gave a viscosity (308.15 K, 100 kPa) of 4.365 ± 0.18 mPa·s and a viscosity (313.15 K, 100 kPa) of 3.887 ± 0.16 mPa·s.

Work on `CC(=O)CC(C)C` yielded a viscosity (293.15 K, 100 kPa) of 0.59 ± 0.05 mPa·s, a viscosity (293.15 K, 101 kPa) of 0.575 mPa·s and a viscosity (293.15 K, 101.32 kPa) of 0.5848 ± 0.0071 mPa·s. The viscosity (293.15 K, 101.33 kPa) was 0.5848 ± 0.0071 mPa·s and 0.586 ± 0.006 mPa·s, the viscosity (298.15 K, 101 kPa) was 0.543 mPa·s and 0.54 ± 0.017 mPa·s and 0.543 ± 0.007 mPa·s and the viscosity (298.15 K, 101.3 kPa) was 0.543 ± 0.015 mPa·s. The viscosity (298.15 K, 101.32 kPa) was 0.5463 ± 0.0066 mPa·s, the viscosity (298.15 K, 101.33 kPa) was 0.5463 ± 0.0066 mPa·s and 0.542 ± 0.007 mPa·s and the viscosity (303.15 K, 100 kPa) was 0.53 ± 0.04 mPa·s. For the same molecule, the viscosity (303.15 K, 101.3 kPa) was 0.519 ± 0.014 mPa·s, the viscosity (303.15 K, 101.33 kPa) was 0.52 ± 0.005 mPa·s and the viscosity (308.15 K, 101 kPa) was 0.494 mPa·s and 0.476 ± 0.016 mPa·s and 0.456 ± 0.021 mPa·s. For the same molecule, the viscosity (308.15 K, 101.32 kPa) was 0.4871 ± 0.006 mPa·s, the viscosity (308.15 K, 101.33 kPa) was 0.4871 ± 0.0059 mPa·s and 0.505 ± 0.007 mPa·s and the viscosity (313.15 K, 100 kPa) was 0.47 ± 0.04 mPa·s. For the same molecule, the viscosity (313.15 K, 101 kPa) was 0.443 ± 0.1 mPa·s, the viscosity (313.15 K, 101.3 kPa) was 0.467 ± 0.013 mPa·s and the viscosity (318.15 K, 101.33 kPa) was 0.447 ± 0.006 mPa·s. It also gave a viscosity (323.15 K, 100 kPa) of 0.42 ± 0.03 mPa·s and a viscosity (323.15 K, 101 kPa) of 0.401 ± 0.1 mPa·s.

With `O=C1CCCCC1` the viscosity (293.15 K, 101.3 kPa) was 2.546 ± 0.029 mPa·s, the viscosity (293.15 K, 101.33 kPa) was 2.315 ± 1 mPa·s and the viscosity (298.15 K, 101.3 kPa) was 1.963 ± 0.025 mPa·s. For the same molecule, the viscosity (303.15 K, 101.3 kPa) was 1.768 ± 0.022 mPa·s and 1.915 ± 0.022 mPa·s, the viscosity (308.15 K, 101 kPa) was 1.631 ± 0.021 mPa·s and 1.632 ± 0.038 mPa·s and 1.632 ± 0.077 mPa·s and the viscosity (308.15 K, 101.3 kPa) was 1.602 ± 0.02 mPa·s and 1.585 ± 0.025 mPa·s. The viscosity (313.15 K, 100 kPa) was 1.481 ± 0.1 mPa·s, the viscosity (313.15 K, 101 kPa) was 1.476 ± 0.016 mPa·s and 1.476 ± 0.019 mPa·s and 1.481 ± 0.07 mPa·s and the viscosity (318.15 K, 100 kPa) was 1.285 ± 0.1 mPa·s. The viscosity (318.15 K, 101 kPa) was 1.285 ± 0.062 mPa·s and 1.373 ± 0.032 mPa·s and 1.373 ± 0.066 mPa·s and the viscosity (318.15 K, 101.33 kPa) was 1.311 ± 0.017 mPa·s.

Molecule `O=C(OCc1ccccc1)c1ccccc1O` has a viscosity (303.15 K, 101 kPa) of 6.722 ± 0.075 mPa·s.

With `CCC(C)N` (stereo not given) the viscosity (298.15 K, 101.33 kPa) was 0.4176 ± 0.0038 mPa·s, the viscosity (303.15 K, 101 kPa) was 0.4024 ± 0.0036 mPa·s and the viscosity (303.15 K, 101.33 kPa) was 0.3884 ± 0.0036 mPa·s. For the same molecule, the viscosity (308.15 K, 101 kPa) was 0.3996 ± 0.041 mPa·s and 0.3996 ± 0.0055 mPa·s, the viscosity (308.15 K, 101.33 kPa) was 0.3659 ± 0.0035 mPa·s and the viscosity (313.15 K, 101.33 kPa) was 0.3465 ± 0.0033 mPa·s. It also gave a viscosity (318.15 K, 101.33 kPa) of 0.3274 ± 0.0032 mPa·s and a viscosity (323.15 K, 101.33 kPa) of 0.3104 ± 0.0031 mPa·s.

`CCOCC` gave a viscosity (293.15 K, 101 kPa) of 0.239 ± 0.006 mPa·s, a viscosity (293.15 K, 101.33 kPa) of 0.25 ± 0.007 mPa·s and a viscosity (298.15 K, 101.33 kPa) of 0.225 ± 0.0016 mPa·s. For the same molecule, the viscosity (303.15 K, 101 kPa) was 0.212 ± 0.006 mPa·s and the viscosity (303.16 K, 101 kPa) was 0.2193 ± 0.041 mPa·s and 0.2193 ± 0.081 mPa·s.
